Laboratory results taken from ChEMBL document CHEMBL5576130, “Non-Covalent Inhibitors of SARS-CoV-2 Papain-Like Protease (PLpro): In Vitro and In Vivo Antiviral Activity” (J Med Chem, 2024).
Active and inactive are the calls of the source. The rule behind the calls is not given here.

How the values were obtained:
SARS-CoV-2 [1] = assay: Antiviral activity against SARS-CoV-2 USA-WA1/2020 infected in African green monkey Vero cells assessed as reduction in viral growth at 2 to 20 uM measured after 2 days by plaque assay; assay type: functional, organism-based; settings: Severe acute respiratory syndrome coronavirus 2, dose 2-20 µM, time 2.0 day
SARS-CoV-2 [2] = assay: Antiviral activity against SARS-CoV-2 USA-WA1/2020 infected in African green monkey Vero cells assessed as reduction in viral growth at 10 uM measured after 2 days by plaque assay; assay type: functional, organism-based; settings: Severe acute respiratory syndrome coronavirus 2, time 2.0 day
SARS-CoV-2 [3] = assay: Antiviral activity against SARS CoV-2; assay type: functional, organism-based; settings: Severe acute respiratory syndrome coronavirus 2
[4] = Plasma protein binding in human; assay type: ADME, cell-free
SARS-CoV-2 [5] = assay: Antiviral activity against SARS-CoV-2 USA-WA1/2020 infected in African green monkey Vero E6 cells […] for 1 hrs followed by viral infection and measured after 48 hrs; assay type: functional, organism-based; settings: Severe acute respiratory syndrome coronavirus 2, USA-WA1/2020, Vero C1008

| Compound | Activity (SARS-CoV-2 [1]) | other results |
| --- | --- | --- |
| Cc1ccc(NC2CNC2)cc1C(=O)N[C@H](C)c1cccc(-c2ccc(CNC(=O)C3CCCC3)s2)c1 | inactive |  |
| Cc1ccc(NC2CNC2)cc1C(=O)N[C@H](C)c1cccc(-c2ccc(CN3CCCC3)s2)c1 | Active |  |
| Cc1ccc(OCCN)cc1C(=O)N[C@H](C)c1cccc(-c2ccc(CN3CCCC3)s2)c1 | inactive |  |
| Cc1ccc(NC2CNC2)cc1C(=O)N[C@H](C)c1cccc(-c2ccc(CN[C@H]3CC[C@@H](O)C3)s2)c1 (single isomer, unassigned) |  | Activity (SARS-CoV-2 [2]): inactive |
| Nc1ccc2cc3ccc(N)cc3nc2c1 [PROFLAVINE] |  | EC50 (SARS-CoV-2 [3]): 64 µM |
| Cc1ccc(OC2CNC2)cc1C(=O)N[C@H](C)c1cccc(-c2ccc(CN3CCCC3)s2)c1 | Active |  |
| CC(=O)N1CCN(c2ccc(OCC3COC(Cn4ccnc4)(c4ccc(Cl)cc4Cl)O3)cc2)CC1 (stereo not drawn) [KETOCONAZOLE] |  | PPB [4]: 99.3% |
| COC(=O)/C=C/C(=O)NNC(=O)CCc1ccccc1C(=O)N[C@H](C)c1cccc2ccccc12 |  | EC50 (SARS-CoV-2 [5]): 0.26 µM |
